Assay results published in US20260325540A1 (priority 2023, published 2026).

Assays:
MERS-CoV 3CLpro = MERS-CoV 3CLpro (Middle East respiratory syndrome-related coronavirus, UniProt K9N638); test: biochemical; conditions: MERS IC50, 75 nM MERS-CoV 3CLpro, 6 μM peptide 1 substrate, 25° C., 1.5 hrs, pH 7.5
SARS-CoV-2 3CLpro = SARS-CoV-2 3CLpro (Severe acute respiratory syndrome coronavirus 2, UniProt P0DTD1); test: FRET based protease assay, SARS-CoV-2 3CL; format: biochemical, SARS-CoV-2 (strain BetaCoV/Wuhan/WIV04/2019)

Chain of MERS-CoV 3CLpro (K9N638 3248-3553 limits assumed): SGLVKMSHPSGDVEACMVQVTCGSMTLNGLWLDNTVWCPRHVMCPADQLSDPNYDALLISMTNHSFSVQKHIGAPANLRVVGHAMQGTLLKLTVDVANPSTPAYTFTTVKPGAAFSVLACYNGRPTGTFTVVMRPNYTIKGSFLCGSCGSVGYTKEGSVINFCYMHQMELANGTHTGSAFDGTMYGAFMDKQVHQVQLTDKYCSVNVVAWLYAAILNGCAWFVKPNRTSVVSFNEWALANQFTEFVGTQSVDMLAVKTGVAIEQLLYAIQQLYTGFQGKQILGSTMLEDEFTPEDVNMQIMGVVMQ

| SMILES | IC50 (MERS-CoV 3CLpro) [nM] | IC50 (SARS-CoV-2 3CLpro) [nM] |
| --- | --- | --- |
| Cc1cc(C(=O)N[C@H]2CCCC[C@H]3CNC(=O)[C@H]3C[C@@H](C#N)NC(=O)[C@@H]3[C@@H]4[C@H](CN3C2=O)C4(C)C)on1 [Example 109] | < 100 | < 100 |
| CC(C)(C)OC(=O)N[C@H]1CCCC[C@H]2CCNC(=O)[C@H]2C[C@@H](C#N)NC(=O)[C@@H]2[C@@H]3[C@H](CN2C1=O)C3(C)C [Example 110] | 100 to 1000 | < 100 |
| CC(C)(C)OC(=O)N[C@H]1CCCC[C@H]2CNC(=O)[C@H]2C[C@@H](C#N)NC(=O)[C@@H]2[C@H]3CC[C@H](CC3)N2C1=O [Example 111] | 100 to 1000 | 100 to 1000 |
| CC(C)(C)OC(=O)N[C@H]1CC/C=C/[C@H]2CNC(=O)[C@H]2C[C@@H](C#N)NC(=O)[C@@H]2[C@H]3CCC[C@H]3CN2C1=O [Example 112] | 100 to 1000 | < 100 |
| Cc1nc(C(=O)N[C@H]2CCCC[C@H]3CNC(=O)[C@H]3C[C@@H](C#N)NC(=O)[C@@H]3[C@@H]4[C@H](CN3C2=O)C4(C)C)cs1 [Example 113] | < 100 | 100 to 1000 |
| CC(C)(C)OC(=O)N[C@H]1CC/C=C\[C@H]2CCNC(=O)[C@H]2C[C@@H](C#N)NC(=O)[C@@H]2[C@@H]3[C@H](CN2C1=O)C3(C)C [Example 114] | 100 to 1000 | < 100 |
| Cc1nc(C(=O)N[C@H]2CCCC[C@H]3CNC(=O)[C@H]3C[C@@H](C#N)NC(=O)[C@@H]3[C@@H]4[C@H](CN3C2=O)C4(C)C)co1 [Example 115] | < 100 | < 100 |
| CC1(C)[C@@H]2[C@H]3C(=O)N[C@H](C#N)C[C@@H]4C(=O)NC[C@@H]4CCCC[C@H](NC(=O)c4ccc(F)c(C(F)(F)F)c4)C(=O)N3C[C@@H]21 [Example 116] | < 100 | < 100 |
| CC1(C)[C@@H]2[C@H]3C(=O)N[C@H](C#N)C[C@@H]4C(=O)NC[C@@H]4CCCC[C@H](NC(=O)C4(C(F)(F)F)CC4)C(=O)N3C[C@@H]21 [Example 117] | < 100 | < 100 |
| CC1(C(=O)N[C@H]2CCCC[C@H]3CNC(=O)[C@H]3C[C@@H](C#N)NC(=O)[C@@H]3[C@@H]4[C@H](CN3C2=O)C4(C)C)CCC1 [Example 118] | 100 to 1000 | < 100 |
| CC1(C)[C@@H]2[C@H]3C(=O)N[C@H](C#N)C[C@@H]4C(=O)NC[C@@H]4CCCC[C@H](NC(=O)C45CC(C(F)(F)F)(C4)C5)C(=O)N3C[C@@H]21 [Example 119] | < 100 | < 100 |
| CC1(C)[C@@H]2[C@H]3C(=O)N[C@H](C#N)C[C@@H]4C(=O)NC[C@@H]4CCCC[C@H](NC(=O)c4ccc(Cl)c(Cl)c4)C(=O)N3C[C@@H]21 [Example 120] | < 100 | < 100 |
| CC(C)(C(=O)N[C@H]1CCCC[C@H]2CNC(=O)[C@H]2C[C@@H](C#N)NC(=O)[C@@H]2[C@@H]3[C@H](CN2C1=O)C3(C)C)c1ccc(Cl)cc1 [Example 121] | 100 to 1000 | < 100 |
| Cc1cc(C(=O)N[C@H]2CCCC[C@H]3CNC(=O)[C@H]3C[C@@H](C#N)NC(=O)[C@@H]3[C@@H]4[C@H](CN3C2=O)C4(C)C)no1 [Example 122] | < 100 | < 100 |
| CC1(C(=O)N[C@H]2CCCC[C@H]3CNC(=O)[C@H]3C[C@@H](C#N)NC(=O)[C@@H]3[C@@H]4[C@H](CN3C2=O)C4(C)C)COC1 [Example 123] | 100 to 1000 | < 100 |
| CC1(C)[C@@H]2[C@H]3C(=O)N[C@H](C#N)C[C@@H]4C(=O)NCC[C@@H]4CCCC[C@H](NC(=O)OC4CCCC4)C(=O)N3C[C@@H]21 [Example 124] | < 100 | < 100 |
| CC(C)(C)OC(=O)N[C@H]1CCC[C@H]2CNC(=O)[C@H]2C[C@@H](C#N)NC(=O)[C@@H]2[C@@H]3[C@H](CN2C(=O)C1)C3(C)C [Example 125] | > 20000 | 1000 to 20000 |

| SMILES | IC50 (MERS-CoV 3CLpro) [nM] | IC50 (SARS-CoV-2 3CLpro) [nM] |
| --- | --- | --- |
| CC(C)(C)OC(=O)N[C@@]1(C)CCCCC[C@H]2CNC(=O)[C@H]2C[C@@H](C#N)NC(=O)[C@@H]2[C@@H]3[C@H](CN2C1=O)C3(C)C [Example 126] | > 20000 | > 20000 |
| CC(C)(C)OC(=O)N[C@H]1CCCC[C@H]2CNC(=O)[C@H]2C[C@@H](C#N)NC(=O)[C@@H]2[C@H]3CC[C@H](C3)N2C1=O [Example 127] | 1000 to 20000 | 1000 to 20000 |
| CC(C)(C)OC(=O)N[C@@H]1CCCC[C@H]2CNC(=O)[C@H]2C[C@@H](C#N)NC(=O)[C@@H]2[C@@H]3[C@H](CN2C1=O)C3(C)C [Example 128] | > 20000 | > 20000 |
| CC1(C)[C@@H]2[C@H]3C(=O)N[C@H](C#N)C[C@@H]4C(=O)NCC[C@@H]4CCCC[C@H](NC(=O)c4ccc(F)cc4F)C(=O)N3C[C@@H]21 [Example 129] | < 100 | < 100 |
| CC1(C)C[C@H]2C(=O)N[C@H](C#N)C[C@@H]3C(=O)NC[C@@H]3CCCC[C@H](NC(=O)OC(C)(C)C)C(=O)N2C1 [Example 130] | 100 to 1000 | 100 to 1000 |
| CC(C)(C)OC(=O)N[C@H]1CCCC[C@H]2CNC(=O)[C@H]2C[C@@H](C#N)NC(=O)[C@@H]2CC(F)(F)CN2C1=O [Example 131] | 100 to 1000 | 100 to 1000 |
| CC(C)(C)OC(=O)N[C@H]1CCCC[C@H]2CNC(=O)[C@H]2C[C@@H](C#N)NC(=O)[C@@H]2CC3(CCN2C1=O)CC3 [Example 132] | 100 to 1000 | < 100 |
| CC1(C)[C@@H]2[C@H]3C(=O)N[C@H](C#N)C[C@@H]4C(=O)NC[C@@H]4CCCC[C@H](NC(=O)c4cc(Cl)ccc4Cl)C(=O)N3C[C@@H]21 [Example 133] | < 100 | < 100 |
| CC1(C)[C@@H]2[C@H]3C(=O)N[C@H](C#N)C[C@@H]4C(=O)NC[C@@H]4CCCC[C@H](NC(=O)c4cccc(Cl)c4Cl)C(=O)N3C[C@@H]21 [Example 134] | < 100 | < 100 |
| CC1(C)[C@@H]2[C@H]3C(=O)N[C@H](C#N)C[C@@H]4C(=O)NCC[C@@H]4CCCC[C@H](NC(=O)C45CC(C(F)(F)F)(C4)C5)C(=O)N3C[C@@H]21 [Example 135] | < 100 | 100 to 1000 |
| CC(C)(C)C[C@@H]1NC(=O)[C@@H](NC(=O)c2ccc(Cl)c(Cl)c2)CCCC[C@H]2CNC(=O)[C@H]2C[C@@H](C#N)NC1=O [Example 136] | < 100 | < 100 |
| CC(C)(C)OC(=O)N[C@H]1CCCC[C@H]2CNC(=O)[C@H]2C[C@@H](C#N)NC(=O)[C@H](CC2CCCC2)NC1=O [Example 137] | 1000 to 20000 | < 100 |
| CC(C)(F)C[C@@H]1NC(=O)[C@@H](NC(=O)OC(C)(C)C)CCCC[C@H]2CNC(=O)[C@H]2C[C@@H](C#N)NC1=O [Example 138] | 100 to 1000 | 100 to 1000 |
| CC1(C)[C@@H]2[C@H]3C(=O)N[C@H](C#N)C[C@@H]4C(=O)NC[C@@H]4CCCC[C@H](NC(=O)c4ccc(F)cc4C(F)(F)F)C(=O)N3C[C@@H]21 [Example 139] | < 100 | < 100 |
| CN1C[C@@H]2CCCC[C@H](NC(=O)OC(C)(C)C)C(=O)N3C[C@H]4[C@@H]([C@H]3C(=O)N[C@H](C#N)C[C@@H]2C1=O)C4(C)C [Example 140] | 100 to 1000 | 100 to 1000 |
| CC1(C)[C@@H]2[C@H]3C(=O)N[C@H](C#N)C[C@@H]4C(=O)NC[C@@H]4CCCC[C@H](NC(=O)C(C)(C)C(F)(F)F)C(=O)N3C[C@@H]21 [Example 141] | < 100 | < 100 |
| CC(C)(C)C[C@@H]1NC(=O)[C@@H](NC(=O)c2ccc(F)c(C(F)(F)F)c2)CCCC[C@H]2CNC(=O)[C@H]2C[C@@H](C#N)NC1=O [Example 142] | 100 to 1000 | 100 to 1000 |
